Test results as given in patent US20260345517A1, “DOSAGE REGIMENS FOR TREATING STARGARDT DISEASE” (Alkeus Pharmaceuticals, Inc., priority 2024, published 2026).

Assay: TEASE-1: safety and adverse events
Type: in vivo, human
Method: The Tolerability and Effects of gildeuretinol acetate in Stargardt Disease (Clinical trial group 1 also known as TEASE-1) was a 24-month, multicenter, double-masked, placebo-controlled trial designed to evaluate the efficacy and safety of daily oral gildeuretinol acetate in slowing the growth of atrophic retinal lesions in Stargardt disease patients. The trial was conducted at multiple sites in the United States (NCT02402660).
Patients 12 years or older, clinically diagnosed with Stargardt disease, with at least one ABCA4 mutation, at least one eye presenting with well-demarcated areas of reduced fundus autofluorescence, and with any visual acuity, were eligible.
Patients were randomized to gildeuretinol acetate 14 mg capsules, gildeuretinol acetate 24 mg capsules, or placebo capsules, to be taken once daily for one year. After one year, 50% of randomly selected patients receiving placebo were crossed over in a 1:1 ratio to gildeuretinol acetate 14 mg capsules or gildeuretinol acetate 24 mg capsules for a second year.
Gildeuretinol acetate and placebo capsules were identical appearing capsules. Patients were advised to avoid vitamin A-containing supplements and liver-based products. Fruits and vegetables contain beta-carotene, not preformed vitamin A, and could be consumed without limitation. Trial visits occurred at 8 weeks and 6, 12, 18, and 24 months following screening and randomization.

CC(=O)OC/C=C(C)/C=C/C=C(C)/C=C/C1=C(C)CCCC1(C)C [gildeuretinol acetate, C20-D3-retinol acetate]
changes by physical examination, electrocardiogram, vital signs, hematology, biochemistry and lipid panels (14 mg and 24 mg): no changes were attributed to gildeuretinol acetate
changes in visual acuity (14 mg and 24 mg): No changes in visual acuity were observed
discontinuation due to side effects (14 mg and 24 mg): no patient discontinued treatment due to side effects
serious adverse events (14 mg and 24 mg): No serious adverse events
severity of adverse events (14 mg and 24 mg): mild or moderate
association between treatment groups and frequency of adverse events (14 mg and 24 mg vs placebo): no association was observed
Abdominal discomfort (14 mg, N = 15): 0 patients (%)
Abdominal distension (14 mg, N = 15): 0 patients (%)
Abdominal pain upper (14 mg, N = 15): 0 patients (%)
Abnormal dreams (14 mg, N = 15): 0 patients (%)
Adverse events, Overall (14 mg, N = 15): 12 (80) patients (%)
Alanine aminotransferase increased (14 mg, N = 15): 1 (6.7) patients (%)
Alopecia (14 mg, N = 15): 2 (13.3) patients (%)
Ankle fracture (14 mg, N = 15): 1 (6.7) patients (%)
Arthralgia (14 mg, N = 15): 1 (6.7) patients (%)
Arthritis (14 mg, N = 15): 0 patients (%)
Aspartate aminotransferase increased (14 mg, N = 15): 1 (6.7) patients (%)
Back injury (14 mg, N = 15): 0 patients (%)
Back pain (14 mg, N = 15): 0 patients (%)
Blepharospasm (14 mg, N = 15): 0 patients (%)
Blood cholesterol increased (14 mg, N = 15): 0 patients (%)
Blood creatinine increased (14 mg, N = 15): 1 (6.7) patients (%)
Blood iron decreased (14 mg, N = 15): 0 patients (%)
Blood pressure increased (14 mg, N = 15): 0 patients (%)
Blood triglycerides increased (14 mg, N = 15): 1 (6.7) patients (%)
Bowel movement irregularity (14 mg, N = 15): 0 patients (%)
Bronchitis (14 mg, N = 15): 0 patients (%)
Cartilage injury (14 mg, N = 15): 1 (6.7) patients (%)
Conjunctival laceration (14 mg, N = 15): 0 patients (%)
Conjunctivitis (14 mg, N = 15): 1 (6.7) patients (%)
Constipation (14 mg, N = 15): 0 patients (%)
Cough (14 mg, N = 15): 0 patients (%)
Death (14 mg, N = 15): 1 (6.7) patients (%)
Depression (14 mg, N = 15): 1 (6.7) patients (%)
Diarrhoea (14 mg, N = 15): 1 (6.7) patients (%)
Diplopia (14 mg, N = 15): 0 patients (%)
Dry eye (14 mg, N = 15): 0 patients (%)
Dry mouth (14 mg, N = 15): 1 (6.7) patients (%)
Dry skin (14 mg, N = 15): 0 patients (%)
Ear discomfort (14 mg, N = 15): 0 patients (%)
Ear infection (14 mg, N = 15): 0 patients (%)
Ear pain (14 mg, N = 15): 0 patients (%)
Eczema (14 mg, N = 15): 0 patients (%)
Electrocardiogram abnormal (14 mg, N = 15): 0 patients (%)
Erythema (14 mg, N = 15): 0 patients (%)
Eye irritation (14 mg, N = 15): 1 (6.7) patients (%)
Eye pain (14 mg, N = 15): 0 patients (%)
Eye pruritus (14 mg, N = 15): 0 patients (%)
Face injury (14 mg, N = 15): 1 (6.7) patients (%)
Faeces soft (14 mg, N = 15): 1 (6.7) patients (%)
Fall (14 mg, N = 15): 1 (6.7) patients (%)
Gastroenteritis (14 mg, N = 15): 1 (6.7) patients (%)
Gastroenteritis viral (14 mg, N = 15): 0 patients (%)
Hair texture abnormal (14 mg, N = 15): 0 patients (%)
Hand fracture (14 mg, N = 15): 1 (6.7) patients (%)
Headache (14 mg, N = 15): 1 (6.7) patients (%)
Herpes zoster (14 mg, N = 15): 1 (6.7) patients (%)
Hordeolum (14 mg, N = 15): 0 patients (%)
Hypertension (14 mg, N = 15): 0 patients (%)
Hypobarism (14 mg, N = 15): 0 patients (%)
Hypothyroidism (14 mg, N = 15): 0 patients (%)
Hysterectomy (14 mg, N = 15): 0 patients (%)
Inflammation (14 mg, N = 15): 0 patients (%)
Influenza (14 mg, N = 15): 0 patients (%)
Insomnia (14 mg, N = 15): 1 (6.7) patients (%)
Intracranial pressure increased (14 mg, N = 15): 0 patients (%)
Irritability (14 mg, N = 15): 0 patients (%)
Jaw operation (14 mg, N = 15): 0 patients (%)
Knee arthroplasty (14 mg, N = 15): 1 (6.7) patients (%)
Laryngitis (14 mg, N = 15): 1 (6.7) patients (%)
Lip swelling (14 mg, N = 15): 0 patients (%)
Low density lipoprotein increased (14 mg, N = 15): 1 (6.7) patients (%)
Muscle spasms (14 mg, N = 15): 1 (6.7) patients (%)
Muscle strain (14 mg, N = 15): 0 patients (%)
Musculoskeletal pain (14 mg, N = 15): 1 (6.7) patients (%)
Nasopharyngitis (14 mg, N = 15): 2 (13.3) patients (%)
Nausea (14 mg, N = 15): 0 patients (%)
Neck pain (14 mg, N = 15): 0 patients (%)
Nephrolithiasis (14 mg, N = 15): 1 (6.7) patients (%)
Nerve compression (14 mg, N = 15): 0 patients (%)
Neuralgia (14 mg, N = 15): 1 (6.7) patients (%)
Obsessive-compulsive disorder (14 mg, N = 15): 0 patients (%)
Oropharyngeal pain (14 mg, N = 15): 0 patients (%)
Osteoporosis (14 mg, N = 15): 0 patients (%)
Pain (14 mg, N = 15): 2 (13.3) patients (%)
Pain in extremity (14 mg, N = 15): 1 (6.7) patients (%)
Pain in jaw (14 mg, N = 15): 0 patients (%)
Peripheral coldness (14 mg, N = 15): 0 patients (%)
Pharyngitis streptococcal (14 mg, N = 15): 1 (6.7) patients (%)
Photophobia (14 mg, N = 15): 1 (6.7) patients (%)
Photopsia (14 mg, N = 15): 1 (6.7) patients (%)
Plantar fasciitis (14 mg, N = 15): 1 (6.7) patients (%)
Pleurisy (14 mg, N = 15): 0 patients (%)
Pneumonia (14 mg, N = 15): 0 patients (%)
Premenstrual syndrome (14 mg, N = 15): 0 patients (%)
Punctate keratitis (14 mg, N = 15): 1 (6.7) patients (%)
Pyrexia (14 mg, N = 15): 0 patients (%)
Radius fracture (14 mg, N = 15): 1 (6.7) patients (%)
Rash (14 mg, N = 15): 1 (6.7) patients (%)
Rotator cuff syndrome (14 mg, N = 15): 0 patients (%)
Sialoadenitis (14 mg, N = 15): 1 (6.7) patients (%)
Sinus congestion (14 mg, N = 15): 0 patients (%)
Sinusitis (14 mg, N = 15): 1 (6.7) patients (%)
Sjogren's syndrome (14 mg, N = 15): 1 (6.7) patients (%)
Skin infection (14 mg, N = 15): 0 patients (%)
Subdural haematoma (14 mg, N = 15): 1 (6.7) patients (%)
Syncope (14 mg, N = 15): 0 patients (%)
Tendonitis (14 mg, N = 15): 1 (6.7) patients (%)
Thoracic outlet syndrome (14 mg, N = 15): 0 patients (%)
Tongue dry (14 mg, N = 15): 1 (6.7) patients (%)
Tooth abscess (14 mg, N = 15): 0 patients (%)
Tooth extraction (14 mg, N = 15): 0 patients (%)
Toothache (14 mg, N = 15): 0 patients (%)
Upper respiratory tract infection (14 mg, N = 15): 1 (6.7) patients (%)
Vision blurred (14 mg, N = 15): 1 (6.7) patients (%)
Visual field defect (14 mg, N = 15): 0 patients (%)
Visual impairment (14 mg, N = 15): 1 (6.7) patients (%)
Vitamin B12 deficiency (14 mg, N = 15): 1 (6.7) patients (%)
Vitamin D decreased (14 mg, N = 15): 2 (13.3) patients (%)
Vitreous floaters (14 mg, N = 15): 1 (6.7) patients (%)
Vulvovaginal candidiasis (14 mg, N = 15): 0 patients (%)
Wrist fracture (14 mg, N = 15): 0 patients (%)
Xanthelasma (14 mg, N = 15): 0 patients (%)
blurred optic disc margins with transient visual obscuration (24 mg, 12-month visit, ocular exam): observed in one patient
Abdominal discomfort (24 mg, N = 15): 1 (6.7) patients (%)
Abdominal distension (24 mg, N = 15): 1 (6.7) patients (%)
Abdominal pain upper (24 mg, N = 15): 1 (6.7) patients (%)
Abnormal dreams (24 mg, N = 15): 1 (6.7) patients (%)
Adverse events, Overall (24 mg, N = 15): 13 (86.7) patients (%)
Alanine aminotransferase increased (24 mg, N = 15): 0 patients (%)
Alopecia (24 mg, N = 15): 0 patients (%)
Ankle fracture (24 mg, N = 15): 0 patients (%)
Arthralgia (24 mg, N = 15): 1 (6.7) patients (%)
Arthritis (24 mg, N = 15): 0 patients (%)
Aspartate aminotransferase increased (24 mg, N = 15): 0 patients (%)
Back injury (24 mg, N = 15): 0 patients (%)
Back pain (24 mg, N = 15): 1 (6.7) patients (%)
Blepharospasm (24 mg, N = 15): 0 patients (%)
Blood cholesterol increased (24 mg, N = 15): 1 (6.7) patients (%)
Blood creatinine increased (24 mg, N = 15): 0 patients (%)
Blood iron decreased (24 mg, N = 15): 1 (6.7) patients (%)
Blood pressure increased (24 mg, N = 15): 1 (6.7) patients (%)
Blood triglycerides increased (24 mg, N = 15): 0 patients (%)
Bowel movement irregularity (24 mg, N = 15): 1 (6.7) patients (%)
Bronchitis (24 mg, N = 15): 0 patients (%)
Cartilage injury (24 mg, N = 15): 0 patients (%)
Conjunctival laceration (24 mg, N = 15): 1 (6.7) patients (%)
Conjunctivitis (24 mg, N = 15): 0 patients (%)
Constipation (24 mg, N = 15): 1 (6.7) patients (%)
Cough (24 mg, N = 15): 2 (13.3) patients (%)
Death (24 mg, N = 15): 0 patients (%)
Depression (24 mg, N = 15): 0 patients (%)
Diarrhoea (24 mg, N = 15): 0 patients (%)
Diplopia (24 mg, N = 15): 1 (6.7) patients (%)
Dry eye (24 mg, N = 15): 1 (6.7) patients (%)
Dry mouth (24 mg, N = 15): 0 patients (%)
Dry skin (24 mg, N = 15): 1 (6.7) patients (%)
Ear discomfort (24 mg, N = 15): 1 (6.7) patients (%)
Ear infection (24 mg, N = 15): 0 patients (%)
Ear pain (24 mg, N = 15): 0 patients (%)
Eczema (24 mg, N = 15): 0 patients (%)
Electrocardiogram abnormal (24 mg, N = 15): 0 patients (%)
Erythema (24 mg, N = 15): 0 patients (%)
Eye irritation (24 mg, N = 15): 0 patients (%)
Eye pain (24 mg, N = 15): 1 (6.7) patients (%)
Eye pruritus (24 mg, N = 15): 1 (6.7) patients (%)
Face injury (24 mg, N = 15): 0 patients (%)
Faeces soft (24 mg, N = 15): 0 patients (%)
Fall (24 mg, N = 15): 1 (6.7) patients (%)
Gastroenteritis (24 mg, N = 15): 0 patients (%)
Gastroenteritis viral (24 mg, N = 15): 1 (6.7) patients (%)
Hair texture abnormal (24 mg, N = 15): 0 patients (%)
Hand fracture (24 mg, N = 15): 0 patients (%)
Headache (24 mg, N = 15): 2 (13.3) patients (%)
Herpes zoster (24 mg, N = 15): 0 patients (%)
Hordeolum (24 mg, N = 15): 1 (6.7) patients (%)
Hypertension (24 mg, N = 15): 1 (6.7) patients (%)
Hypobarism (24 mg, N = 15): 1 (6.7) patients (%)
Hypothyroidism (24 mg, N = 15): 1 (6.7) patients (%)
Hysterectomy (24 mg, N = 15): 1 (6.7) patients (%)
